{"source": "paper PMC4821887", "about": "“Identification of chemicals that mimic transcriptional changes associated with autism, brain aging and neurodegeneration” (Nature Communications, 2016)", "key": {"[1]": {"tested_on": "Rest, Gsta4, Gstm1, Hmox1 transcripts in cortical cultures", "test": "Quantitative real-time PCR of cluster 2 upregulated genes", "format": "cell-based, mouse", "conditions": "fenamidone 10 μM or indicated doses, 24 h, relative to vehicle", "protocol": "Total RNA was extracted and purified using the RNeasy plus mini kit (Qiagen) following the manufacturer's instructions. RNA was quantified using Nanodrop 1000 (Thermo Scientific) and reverse transcribed using iScript Reverse Transcription Supermix (Bio-Rad). Quantitative real-time PCR analysis was performed in technical duplicates using SYBR Green PCR master mix (Applied Biosystems) in a 7500 Real-Time PCR instrument (Applied Biosystems). An amount of 10 ng of complementary DNA was used in each reaction. Fold change of expression of the target RNA in each treatment condition relative to the untreated sample were calculated by raising 2 to the power of −ΔΔCt. ΔΔCt was calculated by subtracting the ΔCt of the untreated sample to the ΔCt of each treatment condition. The ΔCt of each sample was calculated by subtracting the average Ct of Gapdh to the average Ct of the target RNA. The following primers were used at a final concentration of 0.5 μM:\nRest (F: 5′-[…]-3′, R: 5′-[…]-3′); Gsta4 (F: 5′-[…]-3′, R: 5′-[…]-3′); Gstm1 (F: 5′-[…]-3′, R: 5′-[…]-3′); Hmox1 (F: 5′-[…]-3′, R: 5′-[…]-3′); and Gapdh (F: 5′-[…]-3′, R: 5′-[…]-3′)."}, "[2]": {"tested_on": "cortical neurons", "test": "Soma morphology (proportion of cells with altered soma morphology) in live-cell imaging", "format": "cell-based, mouse", "conditions": "2 h treatment, vincristine 500 µM in Supplementary Fig. 10c"}, "[3]": {"conditions": "in vivo; cited from earlier work"}}, "data": [{"molecule": "CSC1=N[C@@](C)(c2ccccc2)C(=O)N1Nc1ccccc1", "note": "[fenamidone]", "values": [{"measurement": "Expression of Nrf2 target antioxidant response genes and Rest (qRT-PCR validation)", "setting": "[1]", "result": "Upregulated"}, {"measurement": "Soma swelling / aberrant cell morphology", "setting": "[2]", "result": "dose dependent"}, {"measurement": "Soma swelling / aberrant cell morphology", "setting": "[2]; listed as Fenamidone", "result": "swelling of neuronal soma"}, {"measurement": "Neurotoxicity in a set of assays used by regulatory agencies", "setting": "[3]", "result": "No evidence of neurotoxicity"}]}]}
